This is an account of results in US6852687B2, “Method for inhibiting apoptosis” (Sucampo AG, priority 2001, dated 2005).

Assay [1] has as its system Conjunctival epithelial cell line CCL-20.2. Description: DNA fragmentation (Cell Death Detection ELISAPLUS). The class given is cell-based. The note with it: Example 1; albumin 1 mg/ml in serum-free medium 199, 24 hours, n=4; measured at 405 nm; control without albumin 0.111 ± 0.018. As for the experimental part:
(§1) Conjunctival epithelial cell line CCL-20.2 (obtained from American Type Culture Collection) was incubated in serum-containing medium 199 (Gibco) until 60-70% of confluent. The cells were washed with a serum-free medium and were resuspended in serum-free medium 199 containing albumin 1 mg/ml or serum-free medium 199 containing no albumin. The cells were then incubated for 24 hours and collected.
DNA fragmentation was determined with the Cell Death Detection ELISAPLUS (Roche Diagnostics Corporation, Basel, Switzerland). 2×10^4 cells were lysed with 0.1 ml of buffering solution and centrifuged to collect the supernatant. The obtained supernatant as well as positive and background controls, each in the amount of 20 μl, was respectively added to a plate coated with streptavidin. After adding an immunologic reagent (incubation buffer: antihistone-biotin: anti-DNA-POD=18:1:1) 80 μl to each plate, it was coated with a film and shaken at 300 rpm for 2 hours at room temperature. Then the plate was washed with incubation buffer 250-300 μl for 3 times. After adding substrate (ABTS) solution 100 μl to the plate, it was shaken at 250 rpm for 10-20 minutes at room temperature. The measurement was 405 nm (reference wavelength 492 nm)(n=4).

Assay [2] has the same test system. Description: Caspase-3 activity of conjunctival epithelial cells incubated in serum-free medium (Z-DEVD-AFC fluorescence). The class given is cell-based. The note with it: for caspase-3 activity compared with the control group: serum-free, 24 hours, n=3. As to the method:
as §1
The caspase-3 activities of the collected cells were determined. The cells were lysed in a buffer solution (50 mM HEPES, 1 mM dithiothreitol and 0.1 mM EDTA (pH7.4)) containing 0.1% CHAPS (3-[(3-cholamidopropyl) dimethylammonio]-2-hydroxy-1-propanesulfonic acid) and were centrifuged to collect the supernatant. The caspase activity in the supernatant was determined with 0.1 mM fluorescence substrate (Z-DEVD-AFC) by means of fluorescence intensity measurement(em:505 nm, ex:400 nm) (n=4).
Conjunctival epithelial cell line CCL-20.2 (obtained from American Type Culture Collection) was incubated in serum-containing medium 199 (Gibco) until 70-80% of confluent. The cells were washed with serum-free medium and resuspended in serum-free medium 199 containing albumin 3 mg/ml; albumin 3 mg/ml+EGF10 ng/ml; albumin 3 mg/ml+vitamin A 0.1 μg/ml; or albumin 3 mg/ml+EGF10 ng/ml+vitamin A 0.1 μg/ml. […]
The caspase-3 activities of the collected cells were measured. […] The caspase activity in the supernatant was determined with 0.1 mM fluorescence substrate (Z-DEVD-AFC) by means of fluorescence intensity measurement(em:505 nm, ex:400 nm) (n=3). […]
The caspase-3 activities of the collected cells were measured. […] The caspase activity in the supernatant was determined with 0.1 mM fluorescence substrate (Z-DEVD-AFC) by means of fluorescence intensity measurement (em:505 nm, ex:400 nm) (n=3). […]
The caspase-3 activities of the collected cells were measured. […] The caspase activity in the supernatant was determined with 0.1 mM fluorescence substrate (Z-DEVD-AFC) by means of fluorescence intensity measurement (em: 505 nm, ex: 400 nm) (n=3).

albumin: the “DNA fragmentation mean ± S.E.” value in assay [1] came out at 0.096 ± 0.047. Further, the “Caspase-3 activity mean ± S.E.” value in assay [2] (Example 1, albumin 1 mg/ml in serum-free medium 199, 24 hours, n=4, control without albumin 0.744 ± 0.246) is listed as 0.510 ± 0.191 n mol/hr/mg protein. Besides, the “caspase-3 activity compared with the control group” value is on record as “significantly lower” in assay [2] (Example 2, FIG. 1, albumin 3 mg/ml, EGF 10 ng/ml, vitamin A 0.1 μg/ml) and “significantly lower” in assay [2] (Example 3, FIG. 2, albumin 1 mg/ml, TGFα 10 ng/ml, TGFβ 10 ng/ml).
